ChEMBL document CHEMBL5244230, “Artemisinin-derived hybrids and their anticancer activity” (Eur J Med Chem, 2020)

Test system: DLD-1
Experiment: Cytotoxicity against human DLD-1 cells assessed as cell growth inhibition measured after 48 hrs by MTT assay
Format: functional
Conditions: not given
Cc1ccc(-c2cn(C3O[C@@H]4O[C@@]5(C)CC[C@H]6[C@H](C)CC[C@@H]([C@H]3C)[C@@]46OO5)nn2)cc1 (some centres undefined) gave a GI50 of 50 nM.
Work on C[C@@H]1[C@@H](n2cc(-c3ccccc3)nn2)O[C@@H]2O[C@@]3(C)CC[C@H]4[C@H](C)CC[C@@H]1[C@@]24OO3 yielded a GI50 of 30 nM.

Test system: HT-29
Experiment: Antiproliferative activity against human HT-29 cells assessed as reduction in cell viability measured for 72 hrs by MTT assay
Format: functional, cell-based
Conditions: HT-29, 72 h
With COc1ccc(OC)c(/C=C/C(=O)c2ccc(COCC(=O)N[C@@H]3O[C@@H]4O[C@@]5(C)CC[C@H]6[C@H](C)CC[C@@H]([C@H]3C)[C@@]46OO5)cc2)c1 the IC50 was 100 nM.
In the case of COc1ccc(/C=C/C(=O)c2ccc(COCC(=O)N[C@@H]3O[C@@H]4O[C@@]5(C)CC[C@H]6[C@H](C)CC[C@@H]([C@H]3C)[C@@]46OO5)cc2)c(OC)c1OC, the IC50 is reported as 100 nM.
C[C@H]1[C@H](NC(=O)COCc2ccc(C(=O)/C=C/c3ccc(F)cc3F)cc2)O[C@@H]2O[C@@]3(C)CC[C@H]4[C@H](C)CC[C@@H]1[C@@]24OO3 showed an IC50 of 100 nM.

Test system: A549
Experiment: Antiproliferative activity against human A549 cells assessed as reduction in cell viability measured for 72 hrs by MTT assay
Format: functional, cell-based
Conditions: A549, 72 h
COc1ccc(OC)c(/C=C/C(=O)c2ccc(COCC(=O)N[C@@H]3O[C@@H]4O[C@@]5(C)CC[C@H]6[C@H](C)CC[C@@H]([C@H]3C)[C@@]46OO5)cc2)c1 gave an IC50 of 100 nM.
For COc1ccc(/C=C/C(=O)c2ccc(COCC(=O)N[C@@H]3O[C@@H]4O[C@@]5(C)CC[C@H]6[C@H](C)CC[C@@H]([C@H]3C)[C@@]46OO5)cc2)c(OC)c1OC, the IC50 was 100 nM.
Work on C[C@H]1[C@H](NC(=O)COCc2ccc(C(=O)/C=C/c3ccc(F)cc3F)cc2)O[C@@H]2O[C@@]3(C)CC[C@H]4[C@H](C)CC[C@@H]1[C@@]24OO3 yielded an IC50 of 100 nM.

Test system: MDA-MB-231
Experiment: Antiproliferative activity against human MDA-MB-231 cells assessed as reduction in cell viability measured for 72 hrs by MTT assay
Format: functional, cell-based
Conditions: MDA-MB-231, 72 h
Compound COc1ccc(OC)c(/C=C/C(=O)c2ccc(COCC(=O)N[C@@H]3O[C@@H]4O[C@@]5(C)CC[C@H]6[C@H](C)CC[C@@H]([C@H]3C)[C@@]46OO5)cc2)c1 has an IC50 of 100 nM.
For COc1ccc(/C=C/C(=O)c2ccc(COCC(=O)N[C@@H]3O[C@@H]4O[C@@]5(C)CC[C@H]6[C@H](C)CC[C@@H]([C@H]3C)[C@@]46OO5)cc2)c(OC)c1OC, the IC50 was 100 nM.
C[C@H]1[C@H](NC(=O)COCc2ccc(C(=O)/C=C/c3ccc(F)cc3F)cc2)O[C@@H]2O[C@@]3(C)CC[C@H]4[C@H](C)CC[C@@H]1[C@@]24OO3 gave an IC50 of 100 nM.

Test system: HeLa
Experiment: Antiproliferative activity against human HeLa cells assessed as reduction in cell viability measured for 72 hrs by MTT assay
Format: functional, cell-based
Conditions: not given
For COc1ccc(OC)c(/C=C/C(=O)c2ccc(COCC(=O)N[C@@H]3O[C@@H]4O[C@@]5(C)CC[C@H]6[C@H](C)CC[C@@H]([C@H]3C)[C@@]46OO5)cc2)c1, the IC50 was 100 nM.
In the case of COc1ccc(/C=C/C(=O)c2ccc(COCC(=O)N[C@@H]3O[C@@H]4O[C@@]5(C)CC[C@H]6[C@H](C)CC[C@@H]([C@H]3C)[C@@]46OO5)cc2)c(OC)c1OC, the IC50 is reported as 100 nM.
With C[C@H]1[C@H](NC(=O)COCc2ccc(C(=O)/C=C/c3ccc(F)cc3F)cc2)O[C@@H]2O[C@@]3(C)CC[C@H]4[C@H](C)CC[C@@H]1[C@@]24OO3 the IC50 was 100 nM.

Test system: NCI-H460
Experiment: Antiproliferative activity against human NCI-H460 cells assessed as reduction in cell viability measured for 72 hrs by MTT assay
Format: functional, cell-based
Conditions: NCI-H460, 72 h
For COc1ccc(OC)c(/C=C/C(=O)c2ccc(COCC(=O)N[C@@H]3O[C@@H]4O[C@@]5(C)CC[C@H]6[C@H](C)CC[C@@H]([C@H]3C)[C@@]46OO5)cc2)c1, the IC50 was 100 nM.
Compound COc1ccc(/C=C/C(=O)c2ccc(COCC(=O)N[C@@H]3O[C@@H]4O[C@@]5(C)CC[C@H]6[C@H](C)CC[C@@H]([C@H]3C)[C@@]46OO5)cc2)c(OC)c1OC has an IC50 of 100 nM.
Compound C[C@H]1[C@H](NC(=O)COCc2ccc(C(=O)/C=C/c3ccc(F)cc3F)cc2)O[C@@H]2O[C@@]3(C)CC[C@H]4[C@H](C)CC[C@@H]1[C@@]24OO3 has an IC50 of 100 nM.

Test system: HT-29
Experiment: Antiproliferative activity against human HT-29 cells assessed as reduction in cell viability
Format: functional, cell-based
Conditions: not given
In the case of Cc1ccccc1NS(=O)(=O)/C=C/c1ccc(OCc2ccc(C(=O)NCCO[C@@H]3O[C@@H]4O[C@@]5(C)CC[C@H]6[C@H](C)CC[C@@H]([C@H]3C)[C@@]46OO5)cc2)cc1, the IC50 is reported as 90 nM.
With C[C@H]1[C@H](OCCNC(=O)c2ccc(COc3ccc(/C=C/S(=O)(=O)Nc4ccccc4)cc3)cc2)O[C@@H]2O[C@@]3(C)CC[C@H]4[C@H](C)CC[C@@H]1[C@@]24OO3 the IC50 was 90 nM.
Work on C[C@H]1[C@H](OCCNC(=O)c2ccc(COc3ccc(/C=C/S(=O)(=O)Nc4c(Cl)cccc4Cl)cc3)cc2)O[C@@H]2O[C@@]3(C)CC[C@H]4[C@H](C)CC[C@@H]1[C@@]24OO3 yielded an IC50 of 90 nM.

Test system: A549
Experiment: Antiproliferative activity against human A549 cells
Format: functional, cell-based
Conditions: not given
Work on C[C@H]1[C@H](OCCNC(=O)c2ccc(COc3ccc(/C=C/S(=O)(=O)Nc4c(Cl)cccc4Cl)cc3)cc2)O[C@@H]2O[C@@]3(C)CC[C@H]4[C@H](C)CC[C@@H]1[C@@]24OO3 yielded an IC50 of 90 nM.

Test system: not listed separately
Experiment: Cytotoxicity against human U87 cells assessed as cell growth inhibition measured after 48 hrs by MTT assay
Format: functional, U-87MG ATCC
Conditions: U-87 MG
Cc1ccc(-c2cn(C3O[C@@H]4O[C@@]5(C)CC[C@H]6[C@H](C)CC[C@@H]([C@H]3C)[C@@]46OO5)nn2)cc1 (some centres undefined) gave a GI50 of 50 nM.
For C[C@@H]1[C@@H](n2cc(-c3ccccc3)nn2)O[C@@H]2O[C@@]3(C)CC[C@H]4[C@H](C)CC[C@@H]1[C@@]24OO3, the GI50 was 30 nM.

Test system: HeLa
Experiment: Cytotoxicity against human HeLa cells assessed as cell growth inhibition measured after 48 hrs by MTT assay
Format: functional
Conditions: not given
For Cc1ccc(-c2cn(C3O[C@@H]4O[C@@]5(C)CC[C@H]6[C@H](C)CC[C@@H]([C@H]3C)[C@@]46OO5)nn2)cc1 (some centres undefined), the GI50 was 50 nM.
Compound C[C@@H]1[C@@H](n2cc(-c3ccccc3)nn2)O[C@@H]2O[C@@]3(C)CC[C@H]4[C@H](C)CC[C@@H]1[C@@]24OO3 has a GI50 of 30 nM.

Test system: SiHa
Experiment: Cytotoxicity against human SiHa cells assessed as cell growth inhibition measured after 48 hrs by MTT assay
Format: functional
Conditions: not given
In the case of Cc1ccc(-c2cn(C3O[C@@H]4O[C@@]5(C)CC[C@H]6[C@H](C)CC[C@@H]([C@H]3C)[C@@]46OO5)nn2)cc1 (some centres undefined), the GI50 is reported as 50 nM.
C[C@@H]1[C@@H](n2cc(-c3ccccc3)nn2)O[C@@H]2O[C@@]3(C)CC[C@H]4[C@H](C)CC[C@@H]1[C@@]24OO3 showed a GI50 of 30 nM.

Test system: A 172
Experiment: Cytotoxicity against human A-172 cells assessed as cell growth inhibition measured after 48 hrs by MTT assay
Format: functional
Conditions: not given
Compound Cc1ccc(-c2cn(C3O[C@@H]4O[C@@]5(C)CC[C@H]6[C@H](C)CC[C@@H]([C@H]3C)[C@@]46OO5)nn2)cc1 (some centres undefined) has a GI50 of 50 nM.
C[C@@H]1[C@@H](n2cc(-c3ccccc3)nn2)O[C@@H]2O[C@@]3(C)CC[C@H]4[C@H](C)CC[C@@H]1[C@@]24OO3 showed a GI50 of 30 nM.

Test system: B16
Experiment: Cytotoxicity against mouse B16 cells assessed as cell growth inhibition measured after 48 hrs by MTT assay
Format: functional
Conditions: not given
In the case of Cc1ccc(-c2cn(C3O[C@@H]4O[C@@]5(C)CC[C@H]6[C@H](C)CC[C@@H]([C@H]3C)[C@@]46OO5)nn2)cc1 (some centres undefined), the GI50 is reported as 50 nM.
For C[C@@H]1[C@@H](n2cc(-c3ccccc3)nn2)O[C@@H]2O[C@@]3(C)CC[C@H]4[C@H](C)CC[C@@H]1[C@@]24OO3, the GI50 was 30 nM.

Test system: MDA-MB-231
Experiment: Antiproliferative activity against human MDA-MB-231 cells
Format: functional, cell-based
Conditions: Homo sapiens, MDA-MB-231
In the case of Cc1ccccc1NS(=O)(=O)/C=C/c1ccc(OCc2ccc(C(=O)NCCO[C@@H]3O[C@@H]4O[C@@]5(C)CC[C@H]6[C@H](C)CC[C@@H]([C@H]3C)[C@@]46OO5)cc2)cc1, the IC50 is reported as 90 nM.
In the case of C[C@H]1[C@H](OCCNC(=O)c2ccc(COc3ccc(/C=C/S(=O)(=O)Nc4ccccc4)cc3)cc2)O[C@@H]2O[C@@]3(C)CC[C@H]4[C@H](C)CC[C@@H]1[C@@]24OO3, the IC50 is reported as 90 nM.
C[C@H]1[C@H](OCCNC(=O)c2ccc(COc3ccc(/C=C/S(=O)(=O)Nc4c(Cl)cccc4Cl)cc3)cc2)O[C@@H]2O[C@@]3(C)CC[C@H]4[C@H](C)CC[C@@H]1[C@@]24OO3 showed an IC50 of 90 nM.
